According to PubChem BioAssay (NCI):
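Where inhibition never reached the appropriate level, the endpoint shown equals the highest concentration tested. Otherwise, values were interpolated linearly from a five-concentration, 48-hour dose response in 96-well plates. TGI: total growth inhibition.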

Key:
Test in all cases: NCI-60 cell line screen, 48 h
[1] = tested on: HOP-62 NSCLC
[2] = tested on: RXF 393 renal
[3] = tested on: UACC-62 melanoma
[4] = tested on: UACC-257 melanoma
[5] = tested on: NCI/ADR-RES ovarian
[6] = tested on: SK-MEL-28 melanoma
[7] = tested on: IGROV1 ovarian
[8] = tested on: HS 578T breast
[9] = tested on: SF-539 CNS
[10] = tested on: HCT-116 colon
[11] = tested on: BT-549 breast
[12] = tested on: MALME-3M melanoma
[13] = tested on: DU-145 prostate
[14] = tested on: SNB-19 CNS
[15] = tested on: 786-0 renal
[16] = tested on: NCI-H226 lung
[17] = tested on: SK-MEL-5 melanoma
[18] = tested on: A549 NSCLC

Row | Structure (SMILES) | TGI [1] | TGI [2] | TGI [3] | TGI [4] | TGI [5] | TGI [6] | TGI [7] | TGI [8] | TGI [9] | TGI [10] | TGI [11] | TGI [12] | TGI [13] | TGI [14] | TGI [15] | TGI [16] | TGI [17] | TGI [18]
1 | CC(C)C(=O)CP(=O)(O)O | > 100 µM | > 100 µM | > 100 µM | > 100 µM | > 100 µM | > 100 µM | > 100 µM | > 100 µM | > 100 µM | > 100 µM | > 100 µM | > 100 µM | > 100 µM | > 100 µM | > 100 µM | > 100 µM | > 100 µM | > 100 µM
2 | NC(N)=N/N=C/c1c(-c2ccc(Cl)cc2)nc2n1CCS2 | 27.4 µM | 24.5 µM | 24.6 µM | 28 µM | 32.6 µM | 26.8 µM | 27.5 µM | 58.8 µM | 25 µM | 16.4 µM | 28 µM | 30.9 µM | 25.5 µM | 32.6 µM | 17.1 µM | 41 µM | 10.3 µM | 22.2 µM
3 | CC(C)[C@H]1NC(=O)[C@H]2N=C(O[C@@H]2C)[C@@H]2CCCN2C(=O)[C@H](Cc2ccccc2)NC(=O)[C@@H]2COC(=N2)[C@@H](Cc2ccccc2)NC(=O)[C@@H]2COC1=N2 | > 100 µM | > 100 µM | > 100 µM | > 100 µM | > 100 µM | > 100 µM | > 100 µM | > 100 µM | > 100 µM | > 100 µM | > 100 µM | > 100 µM | > 100 µM | > 100 µM | > 100 µM | > 100 µM | > 100 µM | > 100 µM
4 | N#C/C=C\c1ccc(-c2cc(C(F)(F)F)cc(C(F)(F)F)c2)o1 | 47.3 µM | > 100 µM | 62.8 µM | > 100 µM | > 100 µM | > 100 µM | > 100 µM | 54.8 µM | 26.6 µM | > 100 µM | 76.8 µM | > 100 µM | > 100 µM | > 100 µM | 70.5 µM | > 100 µM | 43.1 µM | > 100 µM
5 | COc1ccc(/C=C2\CC3C4CC=C5C[C@@H](O)CC[C@]5(C)C4CC[C@]3(C)C2=O)cc1OC (some centres undefined) | > 100 µM | > 100 µM | > 100 µM | > 100 µM | > 100 µM | > 100 µM | > 100 µM | > 100 µM | > 100 µM | > 100 µM | > 100 µM | > 100 µM | > 100 µM | > 100 µM | > 100 µM | > 100 µM | 21.9 µM | > 100 µM
6 | CCN(CC)c1ccc2cc(-c3csc(-c4ccc(N(C)C)cc4)n3)c(=O)oc2c1 | > 100 µM | > 100 µM | > 100 µM | > 100 µM | > 100 µM | > 100 µM | > 100 µM | > 100 µM | > 100 µM | > 100 µM | > 100 µM | > 100 µM | > 100 µM | > 100 µM | > 100 µM | > 100 µM | > 100 µM | > 100 µM
7 | COc1cc2c3c4c1OCc1c5c(cc(c1-4)CC3[N+](C)(C)CC2)OCO5 (centres undefined) | > 100 µM | > 100 µM | > 100 µM | > 100 µM | > 100 µM | > 100 µM | > 100 µM | 31.7 µM | > 96.6 µM | > 100 µM | 12.3 µM | > 100 µM | > 100 µM | 54 µM | > 63.5 µM | > 100 µM | > 100 µM | > 100 µM
8 | Cc1cc(C)nc(NS(=O)(=O)c2ccc(NC(=O)c3ccc4nc5ccccc5c(Nc5ccc(S(=O)(=O)Nc6nc(C)cc(C)n6)cc5)c4c3)cc2)n1 | > 100 µM | > 100 µM | > 100 µM | > 100 µM | > 100 µM | > 100 µM | > 100 µM | > 100 µM | > 100 µM | > 100 µM | 69.7 µM | > 100 µM | > 100 µM | > 100 µM | > 100 µM | > 100 µM | > 100 µM | > 100 µM
9 | Cc1ccc(NCc2nnc3c(-c4ccccc4)nc4ccccc4n23)cc1 | > 100 µM | > 100 µM | > 100 µM | > 100 µM | > 100 µM | > 100 µM | > 100 µM | > 100 µM | > 100 µM | > 100 µM | > 100 µM | > 100 µM | > 100 µM | > 100 µM | > 100 µM | > 100 µM | 30.4 µM | > 100 µM
10 | CCOC(=O)c1c[nH]c2cc3c(cc2c1=O)CCS3 | > 100 µM | > 100 µM | > 100 µM | > 100 µM | > 100 µM | > 100 µM | > 100 µM | > 100 µM | > 100 µM | > 100 µM | > 100 µM | > 100 µM | > 100 µM | > 100 µM | > 100 µM | > 100 µM | > 100 µM | > 100 µM
11 | N#CCCN(CCC#N)c1ccc(/C=C2\N=C(c3ccccc3)N(c3ccccc3)C2=O)cc1 | > 100 µM | > 100 µM | > 100 µM | > 100 µM | > 100 µM | > 100 µM | > 100 µM | 87.6 µM | > 100 µM | > 100 µM | > 100 µM | > 100 µM | > 100 µM | > 100 µM | > 100 µM | > 100 µM | > 100 µM | > 100 µM
12 | C[Si](C)(C)C#CCOC=C1CC1 | > 100 µM | > 100 µM | > 100 µM | > 100 µM | > 100 µM | > 100 µM | > 100 µM | > 100 µM | > 100 µM | > 100 µM | > 100 µM | > 100 µM | > 100 µM | > 100 µM | > 100 µM | > 100 µM | > 100 µM | > 100 µM
13 | O=c1cc(-c2cccc(Br)c2)[nH]c2cc3c(cc12)OCO3 | 4.8 µM | 14.3 µM | 4.83 µM | > 100 µM | 30.7 µM | > 100 µM | 11.8 µM | 26 µM | 6.58 µM | 13.3 µM | 14.4 µM | 17.2 µM | 18.1 µM | 10.3 µM | 12.9 µM | 37 µM | 9.73 µM | 25.2 µM
